Patent US20220305052A1, “METERED DOSE FOR DISORDERS IN OR AROUND THE EYE” (Azura Ophthalmics Ltd., priority 2019, published 2022)
Where two headings read alike, the source gives them in different places.

Assays:
lower eyelid = settings: rabbit, in vivo
Text: On a subsequent study to Example 6, concentrations ranging from 0.5 wt. % to 2.5 wt. % were used on New-Zealand rabbits, once daily to twice weekly for 28 days.

rabbit dermis = settings: in vivo; cited from earlier work
[1] = 5 μL, twice-weekly or once-daily, 3 months
[2] = test system: lower eyelid of the rabbits; settings: rabbit, in vivo
Experimental: The composition is prepared by the combination of selenium disulfide (SeS2) in combination with Petrolatum base (and in the absence of surface acting agents). Compositions comprising various concentrations of selenium disulfide are prepared, such as 0.1 wt. %, 0.5 wt. %, 1 wt. %, 1.5 wt. %, 2 wt. %, and 2.5 wt. %.
Various compositions prepared as described above are administered to the eye or eyelid (e.g., margin thereof) of albino rabbits. Various compositions are administered to distinct cohorts using various treatment protocols, such as based on frequency of administration (e.g., once daily, twice daily, every other day, and once weekly) and volume of administration (e.g., <25 μL or >25 μL per administration). Compositions lacking selenium disulfide are administered to a separate cohort to establish a control.
Albino rabbits are evaluated, and an accurate volume of the composition is ejected from a device (e.g., micropipette) and is delivered to the lower eyelid of the rabbits (FIG. 2). […] In one example, the volume is ˜25 μL (equivalent to 20 mg in weight). The rabbits are examined daily.

[3] = test system: lower eyelid of the right eye
Experimental: The eye was treated with lubricants and local NSAID, and the keratitis resolved within 48 hours.

[4] = test system: seborrheic blepharitis patients; settings: cited from earlier work

S=[Se]=S [SeS2, selenium disulfide]
ophthalmic observations compared with Example 6 (lower eyelid): safer | dermal irritation (rabbit dermis): did not appear to be irritant to rabbit dermis | safety and tolerability (independent Data Review Committee) ([1]; 0.1 wt. %, nine patients): safe and well tolerated | safety and tolerability (independent Data Review Committee) ([1]; 0.5 wt. %, ten patients): safe and well tolerated | safety and tolerability (independent Data Review Committee) ([1]; 1 wt. %, nine patients): safe and well tolerated | animals with corneal staining [2]: 5/6 | clinical or microscopic findings [2]: no clinical or microscopic findings | signs of keratitis, including red and swollen eyelids [2]: all animals showed signs of keratitis | time until pain was reported ([3]; 2.5 wt. % SeS2 with petrolatum, 25 μL (20 mg), one healthy person): About 4 hours | finding on clinical examination ([3]; 2.5 wt. % SeS2 with petrolatum, 25 μL (20 mg), multiple punctate over the center exposed part of the cornea): keratitis was observed | time to resolution of keratitis ([3]; 2.5 wt. %, 25 μL, eye treated with lubricants and local NSAID): ≤ 48 h | tolerability of ointment on the lids ([4]; 0.5 weight percent ointment (Abbott), all patients complained of burning of the conjunctiva (Rychener)): too strong | epithelial keratitis ([4]; human, in vivo): 6 cases | epithelial keratitis persisting as long as a week ([4]; human, in vivo): 1 cases | epithelial keratitis persisting for a matter of days ([4]; human, in vivo): 2 cases | epithelial keratitis, transient ([4]; human, in vivo): 4 cases | keratitis, conjunctivitis with erythematous and swollen lids ([4]; human, in vivo): Two | patients developing moderately severe conjunctivitis ([4]; human, in vivo): 1% | side effect across the studies ([4]; human, in vivo): self-limiting keratitis
